Test system: ULK kinase substrate ATG13 (pS318-ATG13) in HCT-116 cells
Assay: pATG13 levels of mutant KRas HCT-116 cells after treatment with ULK inhibitors in combination with trametinib (ELISA)
Format: cell-based, human
Conditions: not given
Description: pATG13 Levels of Mutant KRas HCT-116 Cells after Treatment with ULK Inhibitors in Combination with Trametinib
HCT-116 human colon cancer cells (10000 cells/well) were added to a 384-well tissue-culture treated plate in 50 μL of pre-warmed DMEM medium supplemented with 10% characterized fetal bovine serum (Invitrogen, Carlsbad, CA), 100 units/mL penicillin G, and 100 μg/mL streptomycin and allowed to grow overnight at 37° C., 5% CO2, and 95% humidity. The following day, 10 μL of media containing trametinib or DMSO as a control was added to wells. The final concentration of trametinib in wells was 250 nM. A dose response of a test compound (0.6 μL per well) was added. DMSO (0.6 μL) was added to control wells. The plate was briefly shaken to mix wells and then incubated at 37° C. overnight. The next day, the media was aspirated and cells were washed with Dulbecco's Phosphate Buffered Saline (Gibco). Cells were lysed using MPER lysis buffer (Pierce, Rockford, IL) containing Halt Phosphatase and Protease Inhibitors (Pierce, Rockford, IL) and Phosphatase inhibitor cocktail 2 (Sigma, St. Louis, MO) at 4° C. for 10 minutes with shaking.
(§1) Cellular levels of phospho-Serine 318 ATG13 (pATG13) were measured via an ELISA method. Total ATG13 Antibody (Cell Signaling Cat #13273) was used to coat the wells. The plate was incubated at 4° C. overnight and washed with ELISA wash buffer (Biolegend Cat #421601). The wells were then blocked with assay diluent (Biolegend Cat #421203) for 1 h at rt. Plate wells were washed with ELISA wash buffer. Cell lysate was added to wells and incubated at rt for 2 h. Plate wells were washed with ELISA wash buffer. Biotinylated pS318-ATG13 antibody (Rockland Immunochemicals Cat #600-401-C49) was diluted in assay diluent and added to each well and incubated at rt for 1 h. Plate wells were washed with ELISA wash buffer. Streptavidin linked to horseradish peroxidase (Thermo Fisher Cat #21140) was diluted in assay diluent and added to each well and incubated at rt for 1 h. Plate wells were washed with ELISA wash buffer. High sensitivity TMB substrate (Biolegend Cat #421101) was added to each well and incubated at rt for 20 minutes. The reaction was stopped with 2.0N sulfuric acid. The plate was analyzed at on a plate reader measuring absorbance at 450 nm and 540 nm (background). Signal was calculated by first subtracting the background absorbance at 540 nm from the absorbance at 450 nm for each well. Next, the background corrected absorbance at 450 nm from blank wells was subtracted from test wells. Data was compared to control wells to determine % ATG13 phosphorylation. GraphPad Prism was used to calculate IC50 values.

Row | IC50 [nM] | Compound
1 | ≤ 100 | CC/C(Nc1cnn(C2CCN(C(C)C)CC2)c1)=C1/C(=O)Nc2ccc(C(=O)NC[C@H]3CCCO3)cc21 [Example 1, (R,Z)-3-(1-((1-(1-isopropylpiperidin-4-yl)-1H-pyrazol-4-yl)amino)propylidene)-2-oxo-N-((tetrahydrofuran-2-yl)methyl)indoline-5-carboxamide]
2 | ≤ 100 | CC/C(Nc1ccc(N2CCN(C)CC2)cn1)=C1/C(=O)Nc2ccc(C(=O)NCC(F)(F)F)cc21 [Example 75]
3 | ≤ 100 | CC/C(Nc1cnn(C)c1)=C1/C(=O)Nc2ccc(C(=O)NCC(F)(F)F)cc21 [Example 77]
4 | > 600 | CC/C(Nc1cnn(C2CCN(C(C)C)CC2)c1)=C1/C(=O)Nc2ccc(C(=O)NCCOC(F)(F)F)cc21 [Example 82]
5 | ≤ 100 | CC/C(Nc1cnn(C2CN(C)C2)c1)=C1/C(=O)Nc2ccc(C(=O)NCC(F)(F)F)cc21 [Example 86]

Test system: ULK kinase substrate ATG13 (pS318-ATG13) in T24 cells
Assay: pATG13 levels of mutant HRas T24 cells after treatment with ULK inhibitors in combination with trametinib (ELISA)
Format: cell-based, human
Conditions: in combination with trametinib 250 nM
Description: pATG13 Levels of Mutant HRas T24 Cells after Treatment with ULK Inhibitors in Combination with Trametinib
T24 human urinary bladder cancer cells (25000 cells/well) were added to a 96-well tissue-culture treated plate in 100 μL of pre-warmed DMEM medium supplemented with 10% characterized fetal bovine serum (Invitrogen, Carlsbad, CA), 100 units/mL penicillin G, and 100 μg/mL streptomycin and allowed to grow overnight at 37° C., 5% CO2, and 95% humidity. The following day, 100 μL of media containing trametinib or DMSO as a control was added to wells. The final concentration of trametinib in wells was 250 nM. A dose response of a test compound (0.5 μL per well) was added. DMSO (0.5 μL) was added to control wells. The plate was briefly shaken to mix wells and then incubated at 37° C. overnight. The next day, the media was aspirated and cells were washed with Dulbecco's Phosphate Buffered Saline (Gibco). Cells were lysed using MPER lysis buffer (Pierce, Rockford, IL) containing Halt Phosphatase and Protease Inhibitors (Pierce, Rockford, IL) and Phosphatase inhibitor cocktail 2 (Sigma, St. Louis, MO) at 4° C. for 10 min with shaking.
as §1, with “min.” for “minutes.”

Row | IC50 [nM] | Compound
6 | ≤ 100 | CC/C(Nc1cnn(C2CCN(C(C)C)CC2)c1)=C1/C(=O)Nc2ccc(C(=O)NC[C@H]3CCCO3)cc21 [Example 1, (R,Z)-3-(1-((1-(1-isopropylpiperidin-4-yl)-1H-pyrazol-4-yl)amino)propylidene)-2-oxo-N-((tetrahydrofuran-2-yl)methyl)indoline-5-carboxamide]

— patent publication US20240150368A1, “ULK INHIBITORS AND METHODS OF USE THEREOF” (Deciphera Pharmaceuticals, LLC, priority 2022, published 2024)
